Drawing on patent US8697722B2 (SRI International, priority 2007, dated 2014), this text covers Ki for 10 compounds.

Where two headings read alike, the source gives them in different places.

One test concerns the target T1, rat α4β2 receptors (Rattus norvegicus, UniProt P09483+P12390).
T1 construct: expressed in transfected cells; host or cells: HEK cells (KXα4β2R2)
As to the kind of experiment: [3H]epibatidine competition binding on membranes of HEK cells transfected with rat α4β2 receptors.

The target of another test is T2, rat α3β4 receptors (Rattus norvegicus, UniProt P04757+P12392).
T2 construct: expressed in transfected cells; host or cells: HEK cells (KXα3β4R2)
As to the kind of experiment: [3H]epibatidine competition binding on membranes of HEK cells transfected with rat α3β4 receptors.

Setting [1] is: read-out: Binding affinities α3β4 (Ki).
The mark [2] stands for this setting: read-out: Binding affinities α4β2 (Ki).
Setting [3] is: competition with 0.3 nM [3H]epibatidine, KXα3β4R2 HEK cell membranes, 3 h room temperature, read-out: Binding affinities α3β4 (Ki).
The mark [4] stands for this setting: competition with 0.3 nM [3H]epibatidine, KXα4β2R2 HEK cell membranes, 3 h room temperature, read-out: Binding affinities α4β2 (Ki).

The term Ki denotes the equilibrium dissociation constant of an inhibitor or competing ligand from its target. The compound `CN1C2CCCC1CC(N1C(=O)Cc3ccccc31)C2` (stereo not shown) [SR 16584] had a Ki at rat α4β2 receptors greater than 10000 nM.

On to `CCOC(=O)N1C2C=C(c3cccnc3)CC1CCC2` (stereo not shown) [SR 17021], for which the Ki at rat α3β4 receptors (setting [1]) and at rat α4β2 receptors (setting [2]) was greater than 10000 nM in each case.

For `O=C1Cc2ccccc2N1C1CC2CCCC(C1)N2` (stereo not shown) [SR 16832], the Ki was 421 nM on rat α3β4 receptors (setting [3]) and greater than 10000 nM at rat α4β2 receptors.

As for `C1=C(c2cccnc2)CC2CC1CN2Cc1ccccc1` (stereo not shown) [SR 17004], the results for the Ki at rat α3β4 receptors and at rat α4β2 receptors (setting [2]) were 194 nM and 1.95 nM, respectively.

Consider `O=c1cccc2n1C[C@@H]1CNC[C@H]2C1` [Cytisine, reference compound], for which the Ki at rat α3β4 receptors (setting [3]) amounted to 203 nM; at rat α4β2 receptors (setting [4]), 1.53 nM.

For `C1=C(c2cnc3ccccc3c2)CC2CC1N(Cc1ccccc1)C2` (stereo not shown) [SR 17015], the Ki on rat α3β4 receptors (setting [3]) amounted to 2480 nM; on rat α4β2 receptors (setting [4]), 29 nM.

Take `CN1C2CCC1CC(N1C(=O)Cc3ccccc31)C2` (stereo not shown) [SR 16583]: the Ki on rat α3β4 receptors (setting [3]) is 2790 nM; on rat α4β2 receptors, greater than 10000 nM.

In the case of `CN1C2CCCC1CC(Nc1ccccc1)C2` (stereo not shown) [SR 17011], the Ki was 826 nM on rat α3β4 receptors (setting [1]) and greater than 10000 nM on rat α4β2 receptors (setting [2]).

For the compound `CN1C2C=C(c3cccnc3)CC1CCC2` (stereo not shown) [SR 17026], the Ki came to 240 nM at rat α3β4 receptors (setting [1]) and 10 nM at rat α4β2 receptors.

Turning to `CN1C2C=C(c3cnc4ccccc4c3)CC1CCC2` (stereo not shown) [SR 17027], the inhibition constant Ki on rat α3β4 receptors (setting [3]) is 2610 nM; at rat α4β2 receptors (setting [4]) it was 423 nM.
